Experimental findings from paper PMC12081876, “Identification of PTGR2 inhibitors as a new therapeutic strategy for diabetes and obesity” (EMBO Molecular Medicine, 2025) are described below.

One experiment deals with T1, mPPARγ (Mus musculus, UniProt P37238).
T1 construct: from tissue; host or cells: perigonadal (epididymal) white adipose tissue of Ptgr2+/+ and Ptgr2-/- mice
Description: Co-immunoprecipitation in mouse white adipose tissue. To be noted: epididymal white adipose tissue of Ptgr2+/+ and Ptgr2−/− mice. The format is binding. The text has this:
Lysates from the perigonadal fat of Ptgr2^+/+ and Ptgr2^−/− mice were immunoprecipitated with a mouse anti-15-keto-PGE2-cysteine-BSA antibody (1:1000) and then immunoblotted with a rat anti-PPARγ antibody (1:1000, cat. no. sc-7273, Santa Cruz Biotechnology).

The next experiment deals with phospho-Akt. Description: Insulin signaling in vivo (phospho-Akt immunoblot). The arrangement: species or system mouse. The note with it: 40 mg/kg/day ip, HFHSD-fed mice, vs vehicle. As for the experimental part:
To evaluate insulin signaling in vivo, mice were fasted overnight. Tissue was harvested 15 min after intraperitoneal insulin injection. The samples (perigonadal fat, inguinal fat, brown adipose tissue and liver) were extracted with RIPA buffer (50 mM Tris-HCl, pH 7.4, 2 mM ethylenediaminetetraacetic acid [EDTA]), 150 mM NaCl, 50 mM NaF, 1% Nonidet P-40, 1 mM phenylmethylsulfonyl fluoride [PMSF], 0.5% sodium deoxycholate, and 0.1% sodium dodecyl sulfate [SDS]) containing phosphatase inhibitor cocktail (cat. no. 04693132001, Roche) and homogenized. The homogenates were then centrifuged at 13,000 rpm for 10 min at 4 °C to remove debris. Samples were separated by SDS-polyacrylamide gel electrophoresis, transferred to polyvinylidene difluoride (PVDF) membrane, blocked with 3% BSA, and probed with anti-phospho-Akt antibody (cat. no. 4058, Cell Signaling) and anti-Akt antibody (cat. no. 9272, Cell Signaling), and then with HRP conjugated anti-rabbit IgG antibody (1:10,000; cat. no. GTX26721, GeneTex).
On the technique in general: Immunoblotting shows a protein as a band on a membrane.

Experiment [1] deals with HFHSD-fed obese C57BL6/J mice. The experiment can be described thus: Energy expenditure, food intake and physical activity (indirect calorimetry). The format is in vivo, mouse. To be noted: 40 mg/kg/day ip, vs vehicle. As for the experimental part:
Metabolic measurements (food and water intake, locomotor activity, VO2 consumption and VCO2 production) were obtained using the Promethion metabolic phenotyping system (Sable Systems). The mice were housed in the Promethion system with ad libitum access to food and water. Monitoring was performed for 5 days after mice have been acclimatized to the cages for 2 days.
All values were expressed as mean ± S.E.M. All reported sample sizes were biologically independent but not technically repeatedly measured. Skewed data was logarithmized to approximate normal distribution. Comparisons between two separate groups were performed using Student t-tests. Comparisons among multiple groups were conducted using a one-way analysis of variance with post hoc analyses. Statistical analyses were conducted using GraphPad Prism 8.0 and SAS 9. Energy expenditure between genotypes was analyzed using the generalized linear model according to international guidance (Speakman et al, [2013]; Tschöp et al, [2011]). Energy expenditure (expressed as kcal/hr) was regressed on body weight using the command “glm” implemented in STATA 14.0 (Speakman et al, [2013]; Tschöp et al, [2011]). Two-sided p-values < 0.05 were considered statistically significant. The sample size was determined according to our previous experience. There was no exclusion/inclusion criteria, blinding and randomization.

Experiment [2] deals with murine PPARγ Ser273 phosphorylation. The experiment can be described thus: TNFα-induced PPARγ Ser273 phosphorylation in 3T3-L1 adipocytes. The class given is cell-based. To be noted: cultured murine adipocytes. On the procedure: For cell-based assay, 3T3-L1 cells were induced differentiation one day after achieving 100% confluence with 0.5 mM IBMX, 1 µm dexamethasone and 10 μg/mL insulin in DMEM containing 10% FBS for 2 days and maintained differentiation in DMEM supplemented with 10 μg/mL insulin and 10% FBS for 4 days. The medium was changed every 2 days. […] Then TNFα was added to induce PPARγ phosphorylation in a concentration of 50 ng/ml for 15 min. Cells were harvested and lysed in RIPA buffer supplemented with 1X cOmplete™, EDTA-free Protease Inhibitor Cocktail (cat. no. 04693132001, Roche) and 1X PhosSTOP™ (cat. no. 4906845001, Roche).
The protein concentrations of tissue lysates were measured by Bradford reagent (cat. no. BP500-0006, Bio-Rad). The protein samples were mixed with 6X sample buffer (0.3 M Tris-HCl, pH 6.8, 0.6 M DTT, 12% SDS, 0.6% Bromophenel blue and 60% glycerol) and heated at 70 °C for 5 min. 30 μg of each sample were separated by 10% SDS-PAGE gel and were transferred to PVDF membrane. The membrane was blocked by 3% BSA in Tris-buffered saline containing 0.1% Tween-20 for 1 h at room temperature and incubated with primary antibody at 4 °C overnight. […] Protein expression of phospho-PPARγ was analyzed using ImageJ software and normalized against PPARγ and GAPDH.

Experiment [3] has the same test system. The experiment can be described thus: PPARγ Ser273 phosphorylation in adipose tissue of mice. To be noted: 40 mg/kg/day, 3 weeks, HFHSD. The class given is in vivo, mouse. On the procedure:
The epididymal adipose tissues were obtained and lysed in RIPA buffer supplemented with 1X cOmplete™, EDTA-free Protease Inhibitor Cocktail (cat no.04693132001, Roche) and 1X PhosSTOP™ (cat. no. 4906845001, Roche).
The protein concentrations of tissue lysates were measured by Bradford reagent (cat. no. BP500-0006, Bio-Rad). The protein samples were mixed with 6X sample buffer (0.3 M Tris-HCl, pH 6.8, 0.6 M DTT, 12% SDS, 0.6% Bromophenel blue and 60% glycerol) and heated at 70 °C for 5 min. 30 μg of each sample were separated by 10% SDS-PAGE gel and were transferred to PVDF membrane. The membrane was blocked by 3% BSA in Tris-buffered saline containing 0.1% Tween-20 for 1 h at room temperature and incubated with primary antibody at 4 °C overnight. Primary antibodies include anti-Ser273 phospho-PPARγ (1:1000, cat. no. BS-4888R, Bioss), anti-PPARγ (1:1500, cat. no.16643-1-AP, Proteintech) and anti-GAPDH (1:5000, cat. no. GTX100118, GeneTex). On the next day, the membranes were incubated with the anti-rabbit IgG HRP-secondary antibody (1:10,000, cat. no. GTX213110-01, GeneTex) for 1 h at RT. Immunoblots were developed using the Immobilon Forte Western HRP Substrate (cat. no. WBLUF0500, Lot Number: 231445, Millipore) and exposed by MultiGel-21 (cat. no. MGIS-21-C2, EBL). Protein expression of phospho-PPARγ was analyzed using ImageJ software and normalized against PPARγ and GAPDH.

In another experiment the target is T2, mPPARγ LBD C313A mutant (Mus musculus, UniProt P37238, C313A).
T2 construct: mPPARγ LBD C313A mutant
Description: Native mass spectrometry ligand binding, mPPARγ LBD C313A. Further details: species or system murine. As for the experimental part:
Wide-type mPPARγ ligand binding domain (LBD), mPPARγ LBD C313A mutant, and mPPARγ LBD H351A mutant were mixed together in a 1:1:1 molar ratio and then incubated with 15-keto-PEG2 or pioglitazone in a 1:10 molar ratio for 5 min at room temperature, respectively. The protein mixture was buffer-exchanged into 500 mM ammonium acetate buffer pH 7.5 using 7 K Zeba™ Spin Desalting Column (cat. no, 89877, Thermo) and immediately introduced into a modified Q-Exactive mass spectrometer (Thermo). The sets of optimized parameters were applied to analyze the ligand binding, including the higher-energy collisional dissociation (HCD) energy of 20 V; spray voltage, 1.1 kV; capillary temperature, 200 °C; S-lens RF level, 200; and resolution, 12,500 at m/z 400. Spectra were acquired and processed manually using Thermo Xcalibur Qual Browser (version 4.4.16.14). The relative percentage of compound-bound forms was quantified by the UniDec software and the degree of effector coupling was calculated by normalizing the relative percentage of bound forms to the sum of the percentage of unbound and bound forms.

T2 sequence (P37238 238-503 C313A limits assumed): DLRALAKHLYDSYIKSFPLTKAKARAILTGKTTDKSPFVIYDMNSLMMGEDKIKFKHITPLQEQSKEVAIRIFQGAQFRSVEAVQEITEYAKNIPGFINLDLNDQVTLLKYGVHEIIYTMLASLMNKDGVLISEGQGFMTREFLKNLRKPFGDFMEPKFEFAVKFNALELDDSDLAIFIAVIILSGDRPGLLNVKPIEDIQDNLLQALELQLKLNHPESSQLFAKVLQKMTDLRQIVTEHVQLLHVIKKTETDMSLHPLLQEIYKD
T1 sequence (P37238 whole entry): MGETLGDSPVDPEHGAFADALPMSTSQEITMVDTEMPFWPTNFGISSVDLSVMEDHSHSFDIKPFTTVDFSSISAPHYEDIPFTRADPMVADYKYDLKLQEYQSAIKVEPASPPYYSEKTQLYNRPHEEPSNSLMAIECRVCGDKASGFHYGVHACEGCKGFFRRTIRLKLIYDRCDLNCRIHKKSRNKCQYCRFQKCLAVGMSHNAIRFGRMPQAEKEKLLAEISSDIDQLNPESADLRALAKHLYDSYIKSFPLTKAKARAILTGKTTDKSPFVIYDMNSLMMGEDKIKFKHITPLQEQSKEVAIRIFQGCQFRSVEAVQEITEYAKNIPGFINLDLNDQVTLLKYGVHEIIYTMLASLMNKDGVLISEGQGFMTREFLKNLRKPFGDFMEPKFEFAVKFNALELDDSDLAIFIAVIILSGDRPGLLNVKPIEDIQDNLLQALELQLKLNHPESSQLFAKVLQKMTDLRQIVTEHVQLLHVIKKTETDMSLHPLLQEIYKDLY

As for `CCCCCC(=O)/C=C/[C@H]1[C@H](O)CC(=O)[C@@H]1C/C=C\CCCC(=O)O` [15-keto-PGE2, 15-keto-prostaglandin E2], on mPPARγ, the “co-immunoprecipitation of mPPARγ with anti-15-keto-PGE2-cysteine-BSA antibody in fat tissue” value was “confirming the covalent binding of mPPARγ to 15-keto-PGE2”. Moreover, the “phospho-Akt after insulin injection (immunoblot)” value in the experiment on phospho-Akt is “increased phospho-Akt in perigonadal fat, inguinal fat, brown adipose tissue, and liver”. Further, the energy expenditure result in experiment [1] (age 8 weeks) is “Higher energy expenditure”. In experiment [1], the Food intake entry is reported as “similar” and the physical activity result is reported as “similar”. Also, the “phosphorylation of PPARγ Ser273” value in experiment [2] is listed as “dose-dependently reduced phosphorylation of Ser273”. Besides, in experiment [3], the “phosphorylation of PPARγ Ser273” value is reported as “dose-dependently reduced phosphorylation of Ser273”. The “effect of C313A mutation on binding (native MS)” value at mPPARγ LBD C313A mutant is reported as “almost completely abolished 15-keto-PGE2 binding”.
